# Test results from patent US6645959B1, “Method for treating postoperative ileus” (Warner-Lambert Company, priority 2000, dated 2003).
# Counter-ions that a name gives are not always drawn.
# Assays:
# [1] = Oral pharmacokinetics in the rat; assay type: in vivo
# Description: (§1) There is a marked food effect with absorption reduced by >50% in dogs after a meal.
# [2] = tested on: AVP-induced pressor response (V1A antagonism); assay: Antagonism of AVP-induced pressor response in rats (oral); assay type: in vivo; conditions: given orally to rats
# [3] = tested on: rats; conditions: rat, in vivo, 2.5 mg/kg
# [4] = tested on: human lymphocytes; assay: Clastogenicity in human lymphocytes in vitro; assay type: cell-based
# [5] = tested on: female rats; conditions: 13-week oral study, all doses
# [6] = tested on: bacteria; assay: Mutagenicity in bacteria; assay type: cell-based
# [7] = tested on: AVP-induced dermal vasoconstriction; assay: AVP-induced dermal vasoconstriction in Phase 1 subjects; assay type: in vivo, human; conditions: subjects at 50 mg IV
# [8] = Pharmacokinetics in healthy subjects (Phase 1)
# [9] = tested on: healthy subjects; assay: Safety in Phase 1 subjects; assay type: in vivo, human
# Description: These observations were considered related to antagonism of V2 receptors and not a safety concern. Vital signs (blood pressure and heart rate) were unaffected by YM087.
# [10] = tested on: dogs; conditions: dog, in vivo, 2 mg/kg
# [11] = tested on: rats; assay: Teratogenicity in rats; assay type: in vivo
# [12] = tested on: dogs with heart failure induced by rapid right ventricular pacing; assay: Heart failure induced by rapid right ventricular pacing in dogs; assay type: in vivo; conditions: IV 0.1 mg/kg
# [13] = tested on: AVP-induced platelet aggregation (V1A antagonist activity); assay: AVP-induced platelet aggregation in Phase 1 subjects; assay type: in vivo, human; conditions: subjects at 20 mg/day orally or 2.5 mg IV
# [14] = Oral pharmacokinetics in the dog; assay type: in vivo
# Description: as §1
# [15] = tested on: aquaretic action (V2 receptor antagonism); assay: Aquaretic action in normal subjects (V2 receptor antagonism); assay type: in vivo, human
# [16] = tested on: rats; assay: Reproductive performance and fertility studies in rats; assay type: in vivo
# [17] = tested on: bone marrow of rats; assay: Clastogenicity in bone marrow of rats; assay type: in vivo
# [18] = tested on: urinary output (V2 antagonism); assay: Urinary output and osmolality in conscious dogs (V2 antagonism); assay type: in vivo
# [19] = tested on: AVP-induced pressor response (V1A antagonism); assay: Antagonism of AVP-induced pressor response in dogs (IV); assay type: in vivo
# [20] = tested on: rabbits; assay: Teratogenicity in rabbits; assay type: in vivo
# [21] = tested on: bone marrow in dogs; assay: 2- and 13-week oral toxicity studies in dogs; assay type: in vivo
# [22] = oral 20 mg, single dose combination
compound,measurement,setting,value
"Cc1nc2c([nH]1)-c1ccccc1N(C(=O)c1ccc(NC(=O)c3ccccc3-c3ccccc3)cc1)CC2 [YM087, N-[4-(2-methyl-4,5,6-tetrahydromidazo [4,5-d][1]benzazepin-6-ylcarbonyl)phenyl]biphenyl-2-carboxamide hydrochloride]",half-life,"[1]; in vivo, rats, read-out: elimination half-life (converted)",1 h
same,time to peak concentrations,[1]; oral,0.5 h
same,ID50 (dose that reduced the AVP response by 50%),[2],0.32 mg/kg
same,toxicity in 4-week IV study,[3],No toxicity was observed
same,clastogenicity,[4],not clastogenic
same,uterine weights,[5],decreased at all doses
same,mutagenicity,[6],not mutagenic
same,AVP-induced dermal vasoconstriction,[7],Total inhibition
same,half-life,"[8]; human, plasma",4 to 5 h
same,bioavailability,"[8]; human, plasma, oral",43 to 59%
same,Tmax,"[8]; human, plasma, po",~1 h
same,bioavailability,"[8]; human, plasma, po, 60 mg",44%
same,effect of 0.5 mg IV digoxin on pharmacokinetics,[8]; [22],not affected
same,effect of 25 mg oral captopril on pharmacokinetics,[8]; [22],not affected
same,plasma levels after the second dose,"[8]; repeated BID oral doses, 60 mg",unexpectedly high plasma levels
same,overall safety,[9]; approximately 250 subjects treated,no major safety concerns were identified
same,urinary and plasma osmolarity at higher doses,"[9]; higher doses, related to V2 antagonism",urinary osmolarity decreased and plasma osmolarity increased
same,biochemical or hematological laboratory parameters,"[9]; human, in vivo",No drug-related trend was observed
same,other adverse events,"[9]; human, in vivo","flushes, a sensation of cold extremities, abdominal complaints, abnormal stools, syncope, dizziness, palpitations, and postural hypotension"
same,vital signs (blood pressure and heart rate),"[9]; human, in vivo",unaffected
same,serious event in patient with severe congestive heart failure,"[9]; one patient, 80 mg/day for 4 days",generalized tonic clonic seizure
same,number of subjects with minor reversible decreases in white blood cell count,[9]; one subject on placebo also affected,Three
same,most frequent adverse events,[9]; regardless of treatment association,mild or moderate thirst and mild headache
same,toxicity in 4-week IV study,[10],No toxicity was observed
same,teratogenicity,[11],not teratogenic
same,cardiac function,[12],significantly improved the depressed cardiac function
same,water diuresis,[12],produced a water diuresis
same,AVP-induced platelet aggregation,[13],Inhibition of AVP-induced platelet aggregation
same,half-life,"[14]; in vivo, dogs, read-out: elimination half-life (converted)",2 h
same,time to peak concentrations,[14]; oral,1 h
same,tolerability of aquaretic effects,"[15]; 120 mg QD or 60 mg BID orally or 50 mg IV, normal subjects",too uncomfortable in normal subjects to be tolerable
same,duration of increased urine production rate postdosing,[15]; IV 50 mg/day,≤ 6 h
same,duration of increased urine production rate postdosing,[15]; IV doses up to 250 μg/kg,up to 3 hours
same,dose at which aquaretic action with decrease in urine osmolarity starts,"[15]; IV, normal subjects",0.05 mg/kg
same,dose at which aquaretic action with decrease in urine osmolarity starts,"[15]; oral, normal subjects",15 mg
same,female fertility findings,[16]; females given 100 mg/kg orally for 2 weeks prior to mating with untreated males,"reduced fertility index, increased implantation loss, and decreased live fetuses"
same,reproductive performance of male rats,[16]; male rats,did not affect
same,clastogenicity,[17],not clastogenic
same,urinary output,"[18]; conscious dogs, oral 0.03 to 0.3 mg/kg, dose-related",increased urinary output
same,urinary osmolality,"[18]; conscious dogs, oral 0.03 to 0.3 mg/kg, reduced from 1500",< 100 mOsm/kg H2O
same,effect on urinary sodium (Na) or potassium (K) excretion,[18]; unlike furosemide,little or no effect
same,ID50 (dose that reduced the AVP response by 50%),[19],0.026 mg/kg
same,teratogenicity,[20],not teratogenic
same,peripheral blood counts,"[21]; affected dogs, 13-week oral study","Decreased peripheral erythrocyte, leukocyte, and/or platelet counts"
same,reversibility of bone marrow and peripheral blood changes,[21]; dogs,reversible
